Measured values as given in patent US20020137929A1, “1 - (3-heterocyclylphenyl) isothiourea, -isourea, -guanidine and -amidine herbicidal agents” (Intellectual Property Department, BASF Aktiengesellschaft, priority 1998, published 2002).

Assays:
ABUTH (Velvetleaf) = experiment: Postemergence herbicidal evaluation; assay type: in vivo, Abutilon theophrasti; conditions: postemergence
In short: (§1)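 Young plants, roughly two weeks from seeding, receive the active ingredient as a sprayed dispersion (acetone/water 50/50, 0.5% TWEEN 20) at 40 psi. Doses span about 0.0156 to 0.500 kg/ha. A visual score from 0 to 9 compares treated with control plants four to five weeks on.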

AMBEL (Ragweed, Common) = experiment: Postemergence herbicidal evaluation; assay type: in vivo, Ambrosia artemisifolia; conditions: postemergence
In short: as §1

[1] = test system: IPOHE (Morningglory, Ivyleaf); experiment: Postemergence herbicidal evaluation; assay type: in vivo, Ipomoea hederacea; conditions: postemergence
In short: as §1

ECHCG (Barnyardgrass) [2] = experiment: Postemergence herbicidal evaluation; assay type: in vivo, Echinochloa crus-galli; conditions: postemergence
In short: as §1

SETVI (Foxtail, Green) = experiment: Postemergence herbicidal evaluation; assay type: in vivo, Setaria viridis; conditions: postemergence
In short: as §1

[3] = test system: GLXMAW (Soybean, Williams); experiment: Postemergence herbicidal evaluation; assay type: in vivo, Glycine max, (L.) Merr. cv Williams; conditions: postemergence
In short: as §1

[4] = test system: TRZAWR (Wheat, Winter, cv Riband); experiment: Postemergence herbicidal evaluation; assay type: in vivo, Triticum aestivum; conditions: postemergence
In short: as §1

CASOB (Sicklepod) = experiment: Preemergence herbicidal evaluation; assay type: in vivo, Cassia obtusifolia; conditions: rated 4-5 weeks after treatment
In short: (§2)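 Scores use a 0–9 visual scale covering stand, vigor, malformation, size and chlorosis relative to controls, rated four to five weeks after treatment. Before emergence, soil-planted seeds were sprayed with compound in aqueous acetone at roughly 0.0156–0.500 kg/ha and held in the greenhouse.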

[5] = test system: CHEAL (Lambsquarters, Common); experiment: Preemergence herbicidal evaluation; assay type: in vivo, Chenopodium album; conditions: rated 4-5 weeks after treatment
In short: as §2

GALAP (Galium) = experiment: Preemergence herbicidal evaluation; assay type: in vivo, Galium aparine; conditions: rated 4-5 weeks after treatment
In short: as §2

[6] = test system: IPOHE (Morningglory, Ivyleaf); experiment: Preemergence herbicidal evaluation; assay type: in vivo, Ipomoea hederacea; conditions: rated 4-5 weeks after treatment
In short: as §2

ECHCG (Barnyardgrass) [7] = experiment: Preemergence herbicidal evaluation; assay type: in vivo, Echinochloa crus-galli; conditions: rated 4-5 weeks after treatment
In short: as §2

ZEAMX (Corn, Field) = experiment: Preemergence herbicidal evaluation; assay type: in vivo, Zea mays; conditions: rated 4-5 weeks after treatment
In short: as §2

[8] = test system: ECHORC (Watergrass (Calif.)); experiment: Postemergence weed control under flooded paddy conditions; assay type: in vivo, Echinochloa oryzoides; conditions: postemergence weeds, rated 3 to 4 weeks after treatment
In short: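 Flood-water application, about 0.0313–0.500 kg/ha a.i. in aqueous/acetone 50/50 v/v; water depth 1.5–3 cm throughout. Weeds 3–5 cm, rice 1.5–2.5 leaf. Greenhouse; 0–9 visual rating vs control at 3–4 wk.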

COC(=O)[C@@H](Cc1ccccc1)N1C(=O)CSC1=Nc1cc(-n2c(=O)cc(C(F)(F)F)n(C)c2=O)c(F)cc1Cl [Compound 74, Methyl α-benzyl-2-{{2-chloro-5-[3,6-dihydro-3-methyl-2,6-dioxo-4-(trifluoromethyl)-1(2H)-pyrimidinyl]-4-fluorophenyl}imino}-4-oxo-3-thiazolidineacetate, D-]
5.5: GLXMAW herbicidal rating ([3]; rate 0.0158 kg/ha)
6.0: TRZAWR herbicidal rating ([4]; rate 0.0630 kg/ha)
7.0: Herbicidal rating ECHORC ([8]; Rate 0.0313 kg/ha)
0.0: Preemergence herbicidal rating CASOB (CASOB (Sicklepod); rate 0.0156 kg/ha) | Preemergence herbicidal rating CASOB (CASOB (Sicklepod); rate 0.0313 kg/ha) | Preemergence herbicidal rating CASOB (CASOB (Sicklepod); rate 0.0625 kg/ha) | Preemergence herbicidal rating CASOB (CASOB (Sicklepod); rate 0.1250 kg/ha) | Preemergence herbicidal rating CASOB (CASOB (Sicklepod); rate 0.2500 kg/ha) | Preemergence herbicidal rating GALAP (GALAP (Galium); rate 0.0156 kg/ha) | Preemergence herbicidal rating GALAP (GALAP (Galium); rate 0.0313 kg/ha) | Preemergence herbicidal rating GALAP (GALAP (Galium); rate 0.0625 kg/ha) | Preemergence herbicidal rating GALAP (GALAP (Galium); rate 0.1250 kg/ha) | Preemergence herbicidal rating IPOHE ([6]; rate 0.0156 kg/ha) | Preemergence herbicidal rating IPOHE ([6]; rate 0.1250 kg/ha) | Preemergence herbicidal rating ECHCG (ECHCG (Barnyardgrass) [7]; rate 0.0156 kg/ha) | Preemergence herbicidal rating ECHCG (ECHCG (Barnyardgrass) [7]; rate 0.0313 kg/ha) | Preemergence herbicidal rating ECHCG (ECHCG (Barnyardgrass) [7]; rate 0.1250 kg/ha) | Preemergence herbicidal rating ZEAMX (ZEAMX (Corn, Field); rate 0.0156 kg/ha) | Preemergence herbicidal rating ZEAMX (ZEAMX (Corn, Field); rate 0.0313 kg/ha) | Preemergence herbicidal rating ZEAMX (ZEAMX (Corn, Field); rate 0.0625 kg/ha)
5.0: GLXMAW herbicidal rating ([3]; rate 0.0315 kg/ha)
6.5: GLXMAW herbicidal rating ([3]; rate 0.0630 kg/ha)
1.0: ECHCG herbicidal rating (ECHCG (Barnyardgrass) [2]; rate 0.0158 kg/ha) | ECHCG herbicidal rating (ECHCG (Barnyardgrass) [2]; rate 0.0315 kg/ha) | ECHCG herbicidal rating (ECHCG (Barnyardgrass) [2]; rate 0.0630 kg/ha) | SETVI herbicidal rating (SETVI (Foxtail, Green); rate 0.0158 kg/ha) | SETVI herbicidal rating (SETVI (Foxtail, Green); rate 0.0315 kg/ha) | Preemergence herbicidal rating IPOHE ([6]; rate 0.0625 kg/ha) | Preemergence herbicidal rating IPOHE ([6]; rate 0.2500 kg/ha) | Preemergence herbicidal rating ECHCG (ECHCG (Barnyardgrass) [7]; rate 0.0625 kg/ha) | Preemergence herbicidal rating ECHCG (ECHCG (Barnyardgrass) [7]; rate 0.2500 kg/ha) | Preemergence herbicidal rating ZEAMX (ZEAMX (Corn, Field); rate 0.1250 kg/ha) | Preemergence herbicidal rating ZEAMX (ZEAMX (Corn, Field); rate 0.2500 kg/ha)
2.0: SETVI herbicidal rating (SETVI (Foxtail, Green); rate 0.0630 kg/ha)
3.5: TRZAWR herbicidal rating ([4]; rate 0.0158 kg/ha)
4.5: TRZAWR herbicidal rating ([4]; rate 0.0315 kg/ha)
9.0: ABUTH herbicidal rating (ABUTH (Velvetleaf); rate 0.0158 kg/ha) | ABUTH herbicidal rating (ABUTH (Velvetleaf); rate 0.0315 kg/ha) | ABUTH herbicidal rating (ABUTH (Velvetleaf); rate 0.0630 kg/ha) | AMBEL herbicidal rating (AMBEL (Ragweed, Common); rate 0.0158 kg/ha) | AMBEL herbicidal rating (AMBEL (Ragweed, Common); rate 0.0315 kg/ha) | AMBEL herbicidal rating (AMBEL (Ragweed, Common); rate 0.0630 kg/ha) | IPOHE herbicidal rating ([1]; rate 0.0158 kg/ha) | IPOHE herbicidal rating ([1]; rate 0.0315 kg/ha) | IPOHE herbicidal rating ([1]; rate 0.0630 kg/ha) | Preemergence herbicidal rating CHEAL ([5]; rate 0.0156 kg/ha) | Preemergence herbicidal rating CHEAL ([5]; rate 0.0313 kg/ha) | Preemergence herbicidal rating CHEAL ([5]; rate 0.0625 kg/ha) | Preemergence herbicidal rating CHEAL ([5]; rate 0.1250 kg/ha) | Preemergence herbicidal rating CHEAL ([5]; rate 0.2500 kg/ha) | Preemergence herbicidal rating GALAP (GALAP (Galium); rate 0.2500 kg/ha) | Herbicidal rating ECHORC ([8]; Rate 0.0625 kg/ha) | Herbicidal rating ECHORC ([8]; Rate 0.1250 kg/ha) | Herbicidal rating ECHORC ([8]; Rate 0.2500 kg/ha)

C[C@@H](C(=O)OC(C)(C)C)N1C(=O)CSC1=Nc1cc(-n2c(=O)cc(C(F)(F)F)n(C)c2=O)c(F)cc1Cl [Compound 75, tert-Butyl 2-{{2-chloro-5-[3,6-dihydro-3-methyl-2,6-dioxo-4-(trifluoromethyl)-1(2H)-pyrimidinyl]-4-fluorophenyl}imino}-α-methyl-4-oxo-3-thiazolidineacetate, L-]
2.5: TRZAWR herbicidal rating ([4]; rate 0.0158 kg/ha) | TRZAWR herbicidal rating ([4]; rate 0.0315 kg/ha) | TRZAWR herbicidal rating ([4]; rate 0.0630 kg/ha)
2.0: Preemergence herbicidal rating IPOHE ([6]; rate 0.2500 kg/ha) | Preemergence herbicidal rating ECHCG (ECHCG (Barnyardgrass) [7]; rate 0.2500 kg/ha)
0.0: Preemergence herbicidal rating CASOB (CASOB (Sicklepod); rate 0.0156 kg/ha) | Preemergence herbicidal rating CASOB (CASOB (Sicklepod); rate 0.0313 kg/ha) | Preemergence herbicidal rating CASOB (CASOB (Sicklepod); rate 0.0625 kg/ha) | Preemergence herbicidal rating GALAP (GALAP (Galium); rate 0.0156 kg/ha) | Preemergence herbicidal rating GALAP (GALAP (Galium); rate 0.0313 kg/ha) | Preemergence herbicidal rating GALAP (GALAP (Galium); rate 0.0625 kg/ha) | Preemergence herbicidal rating GALAP (GALAP (Galium); rate 0.1250 kg/ha) | Preemergence herbicidal rating GALAP (GALAP (Galium); rate 0.2500 kg/ha) | Preemergence herbicidal rating IPOHE ([6]; rate 0.0156 kg/ha) | Preemergence herbicidal rating IPOHE ([6]; rate 0.0313 kg/ha) | Preemergence herbicidal rating IPOHE ([6]; rate 0.0625 kg/ha) | Preemergence herbicidal rating IPOHE ([6]; rate 0.1250 kg/ha) | Preemergence herbicidal rating ECHCG (ECHCG (Barnyardgrass) [7]; rate 0.0156 kg/ha) | Preemergence herbicidal rating ECHCG (ECHCG (Barnyardgrass) [7]; rate 0.0313 kg/ha) | Preemergence herbicidal rating ECHCG (ECHCG (Barnyardgrass) [7]; rate 0.0625 kg/ha) | Preemergence herbicidal rating ECHCG (ECHCG (Barnyardgrass) [7]; rate 0.1250 kg/ha) | Preemergence herbicidal rating ZEAMX (ZEAMX (Corn, Field); rate 0.0156 kg/ha) | Preemergence herbicidal rating ZEAMX (ZEAMX (Corn, Field); rate 0.0313 kg/ha) | Preemergence herbicidal rating ZEAMX (ZEAMX (Corn, Field); rate 0.0625 kg/ha)
4.5: GLXMAW herbicidal rating ([3]; rate 0.0315 kg/ha)
4.0: GLXMAW herbicidal rating ([3]; rate 0.0158 kg/ha)
3.0: SETVI herbicidal rating (SETVI (Foxtail, Green); rate 0.0630 kg/ha) | Preemergence herbicidal rating ZEAMX (ZEAMX (Corn, Field); rate 0.2500 kg/ha)
6.0: Herbicidal rating ECHORC ([8]; Rate 0.0313 kg/ha) | Herbicidal rating ECHORC ([8]; Rate 0.0625 kg/ha)
1.0: ECHCG herbicidal rating (ECHCG (Barnyardgrass) [2]; rate 0.0158 kg/ha) | ECHCG herbicidal rating (ECHCG (Barnyardgrass) [2]; rate 0.0315 kg/ha) | ECHCG herbicidal rating (ECHCG (Barnyardgrass) [2]; rate 0.0630 kg/ha) | SETVI herbicidal rating (SETVI (Foxtail, Green); rate 0.0158 kg/ha) | Preemergence herbicidal rating CASOB (CASOB (Sicklepod); rate 0.1250 kg/ha) | Preemergence herbicidal rating CASOB (CASOB (Sicklepod); rate 0.2500 kg/ha) | Preemergence herbicidal rating ZEAMX (ZEAMX (Corn, Field); rate 0.1250 kg/ha)
5.0: AMBEL herbicidal rating (AMBEL (Ragweed, Common); rate 0.0315 kg/ha) | SETVI herbicidal rating (SETVI (Foxtail, Green); rate 0.0315 kg/ha) | GLXMAW herbicidal rating ([3]; rate 0.0630 kg/ha)
9.0: ABUTH herbicidal rating (ABUTH (Velvetleaf); rate 0.0158 kg/ha) | ABUTH herbicidal rating (ABUTH (Velvetleaf); rate 0.0315 kg/ha) | ABUTH herbicidal rating (ABUTH (Velvetleaf); rate 0.0630 kg/ha) | AMBEL herbicidal rating (AMBEL (Ragweed, Common); rate 0.0630 kg/ha) | IPOHE herbicidal rating ([1]; rate 0.0630 kg/ha) | Preemergence herbicidal rating CHEAL ([5]; rate 0.0156 kg/ha) | Preemergence herbicidal rating CHEAL ([5]; rate 0.0313 kg/ha) | Preemergence herbicidal rating CHEAL ([5]; rate 0.0625 kg/ha) | Preemergence herbicidal rating CHEAL ([5]; rate 0.1250 kg/ha) | Preemergence herbicidal rating CHEAL ([5]; rate 0.2500 kg/ha) | Herbicidal rating ECHORC ([8]; Rate 0.1250 kg/ha) | Herbicidal rating ECHORC ([8]; Rate 0.2500 kg/ha)
7.0: AMBEL herbicidal rating (AMBEL (Ragweed, Common); rate 0.0158 kg/ha) | IPOHE herbicidal rating ([1]; rate 0.0158 kg/ha) | IPOHE herbicidal rating ([1]; rate 0.0315 kg/ha)
